These results are taken from patent EP4623928A1, “GLP-1R ANTAGONISTS FOR THE TREATMENT OF CANCER” (Fiorina, Paolo, priority 2024, dated 2025).

Test [1] has as its system mitogen-stimulated murine splenocytes. Description: IFN-γ ELISpot assay on anti-CD3/anti-CD28 stimulated splenocytes. The following applies: Exe-4 at 0.1, 1 or 10 nM, soluble anti-CD3 and anti-CD28, 24 hours. The class given is cell-based, C57BL/6 mice. How it is done:
An ELISPOT assay was used to measure the number of IFN-γ-producing cells according to the manufacturer's protocol (BD Biosciences) as previously performed by our group (39). To test the role of GLP-1R-driven immunity on the anti-CD3/28 non-autoimmune specific response, 1×10^6 splenocytes isolated from C57BL/6 mice were cultured in a microwell plate (BD Biosciences) coated with IFN-y capture antibody (Ab) in the presence of the following soluble anti-CD3 and anti-CD28 at 0,5ug/ml for 24 hours. Exe-4 and/or Exe-4+Exe-9-39 at concentrations of 0.1, 1 or 10 nM were added to the culture. After 24 hours, bound secondary Ab was visualized using HRP-streptavidin and the AEC substrate kit (BD Biosciences). Spots were counted using an Immunospot analyzer (Cellular Technology Ltd., Cleveland, OH) and expressed as the number of cytokine-producing spots per 1×10^6 cells. After 24hours, ELISpot plates were developed and acquired on an ELISpot reader, as previously described.

In test [2] the test system is untransduced-mock and pmY-GLP-1R transduced CD3^+ T cells. Description: Seahorse bioenergetic analysis, mock and pmY-GLP-1R transduced CD3+ T cells. It counts as cell-based, murine. The following applies: pmY-GLP-1R transduced vs untransduced-mock CD3^+ T cells, Exe-4 (1 nM). On the procedure:
Cellular Bioenergetics were analyzed using the Seahorse Extracellular Flux Analyzer Xfe96 (Agilent Technologies, Santa Clara, CA, United States), which simultaneously measures Oxygen Consumption Rate (OCR, pmolO2/min), ExtraCellular Acidification Rate (ECAR, mpH/min) and Proton Efflux Rate (PER, pmolH^+/min). For Seahorse experiments 150.000 cells either freshly isolated GLP-1R^pos or GLP-1R^neg CD3^+ T cells or activated with soluble anti-CD3/CD28 at 0.5 µg/ml each in the presence or not of Exe-4 (1 nM); in another setting untransduced mock CD3^+ T cells or pmY-GLP-1R CD3^+ T cells already activated with soluble anti-CD3/CD28 at 0.5 µg/ml each in the presence or not of Exe-4 (1 nM). Cells were resuspended in 50 µL assay medium (Agilent #103576-100 RPMI Medium pH7.4, supplemented with 10mM glucose, 2mM glutamine and 1mM Na-pyruvate) were seeded in each CellTak-precoated well of an Agilent Xfe96 Pro well plate. The cell plate was centrifuged 2 times at 40 × g (zero braking) for 1 minute. After centrifugation, 150 µL warm assay medium was gently added to each well. […]
Seahorse parameters were normalized to cell number in each well. To this purpose, at the end of the Seahorse analysis, cell nuclei were stained with Hoechst 33342 (1 µg/mL) for about 15 min, imaged and counted with Operetta CLS™ software Harmony, as previously described (43). […]

A further test relates to CD4^+ and CD8^+ T cells. Description: Cell death and proliferation of CD4+ and CD8+ T cells in splenocytes activated with anti-CD3/anti-CD28 (FACS). The class given is cell-based, C57BL/6 mice. The settings on record: anti-CD3/anti-CD28 activated splenocytes.
For test [3], the system named is untransduced-mock and pmY-GLP-1R transduced CD3^+ T cells. Description: Proliferation, apoptosis and IFN-γ expression of untransduced-mock and pmY-GLP-1R transduced CD3+ T cells. It counts as cell-based, murine. The following applies: Exe-4. On the procedure:
The mGLP-1R cDNA construct (Origene) was inserted into the pMY-IRES-GFP plasmid (Cell BioLabs, Inc., San Diego, CA). The Platinum-E Retroviral Packaging cell line was transfected with the pMY-IRES-GFP plasmid expressing GLP-1R using polybrene (Santa Cruz Biotechnology), and supernatant was collected. T cells were activated for 48 hours in the presence of soluble anti-CD3/CD28 at 0.5 µg/ml each in the presence of IL-2 (400 ng/ml) (R&D Systems), and viral supernatant was added. The upregulation of GLP-1R was assessed by FACS and western blot analysis.

Test [4] concerns naive CD4^+CD25^- T cells. Description: Treg induction assay. The class given is cell-based. The settings on record: Exe-4 (1nM), 5 days. How it is done: Naive CD4^+ CD25^- T cells were selected and activated for 5 days with 1 µg/ml of plate-bound […] anti-CD3 and anti-CD28 antibodies (BD Biosciences). Cells were cultured for 5-days in the presence of IL-2 (10ng/ml; R&D Systems) and TGFβ (2ng/mL; R&D Systems), anti-IL-4 (0.5µg/ml; PeproTech) and anti-IFNγ (2µg/mL; PeproTech) and were treated with Exe-4 (1nM) or left untreated. Then, cells were washed, pulsed for 4-hrs with phorbol myristate acetate (PMA; 50ng/mL; Sigma-Aldrich), ionomycin (500ng/mL; Sigma-Aldrich) and Golgi-stop (1.0µl/mL; BD Biosciences) and then analyzed by FACSCelesta (BD Biosciences) for the expression of Foxp3, Tbet and RoryT as previously reported (38).

The subject of a further test is effector T cells. Description: Effector T cell suppression by iTregs generated with Exe-4 (CTV dilution). The settings on record: iTregs generated in the presence of Exe-4, ratio of 1: 4 to effector T cells, vs untreated-iTregs. It counts as cell-based.
The mark [5] stands for this setting: both untransduced-mock and pmY-GLP-1R transduced CD3^+ T cells.

Take Exendin-4 [Exe-4]: the “number of IFN-y producing cells” value in test [1] was “significantly reduced”. In test [2], the “ATP production from mitochondrial respiration” value was “significantly increased” and the OCR values entry is on record as “significantly increased”. For the same substance, the “cell death of CD4^+ and CD8^+ T cells” value in the test with CD4^+ and CD8^+ T cells (Exe-4 alone (1 nM)) is reported as “significant increase”. Also, the “proliferation of CD4^+ and CD8^+ T cells” value in the test with CD4^+ and CD8^+ T cells (Exe-4 alone) is “no effect”. For the same substance, in test [3] (setting [5]), the IFN-γ expression entry is given as “without any effect” and the proliferation entry is listed as “no effect”. The apoptosis result in test [3] (pmY-GLP-1R transduced CD3^+ T cells only) is recorded as “significantly increased”. In test [4], the “Ror-yT on iTregs (iTreg stability)” value is “significant reduction”, the “Tbet on iTregs (iTreg stability)” value is given as “significant reduction” and the “Treg induction (percentage of FoxP3^+CD4^+CD25^+ Tregs)” value is recorded as “no substantial differences”. For the same substance, in the test on effector T cells, the “suppression of effector T cells by iTregs” value is on record as “significantly reduced suppression”.
